Measurements: patent publication US9440982B2 (Eolas Therapeutics, Inc., priority 2012, dated 2016)

Biological target: T1, CYP3A4 (Homo sapiens, UniProt P08684)
T1 construct: pre-incubated with human liver microsomes and NADPH; from tissue; host or cells: human liver microsomes
Assay: Cytochrome P450 inhibition assay (midazolam hydroxylation)
Format: in vitro ADME
Conditions: human, human liver microsomes, probe midazolam (hydroxylation to 1′-hydroxymidazolam), 10 μM test compound, midazolam at approximately its Km
In short: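 Percent inhibition of midazolam 1′-hydroxylation by 10 μM compound was measured, midazolam dosed at about Km. Time-dependent inhibition was probed by a 30 min preincubation of compound with human liver microsomes and NADPH ahead of substrate, compared against samples without preincubation.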

T1 sequence (P08684 whole entry): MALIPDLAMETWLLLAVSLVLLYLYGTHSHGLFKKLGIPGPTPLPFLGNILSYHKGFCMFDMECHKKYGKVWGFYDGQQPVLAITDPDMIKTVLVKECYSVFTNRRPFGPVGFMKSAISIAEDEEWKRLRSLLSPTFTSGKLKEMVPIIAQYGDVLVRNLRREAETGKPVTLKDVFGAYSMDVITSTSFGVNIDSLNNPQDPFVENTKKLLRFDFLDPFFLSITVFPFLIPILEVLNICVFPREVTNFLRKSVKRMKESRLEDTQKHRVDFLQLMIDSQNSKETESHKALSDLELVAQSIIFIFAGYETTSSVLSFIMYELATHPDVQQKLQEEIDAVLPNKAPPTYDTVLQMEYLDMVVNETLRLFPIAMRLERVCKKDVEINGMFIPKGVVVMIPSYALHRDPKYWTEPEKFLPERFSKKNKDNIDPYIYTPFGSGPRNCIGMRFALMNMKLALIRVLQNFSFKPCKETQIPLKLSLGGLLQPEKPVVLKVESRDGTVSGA

Structure (SMILES) | inhibition at 10 µM [%]
Cc1ccc(-c2cnn(C)c2)c(C(=O)N2CCC[C@@H](C)[C@H]2CNc2cccc(C(F)(F)F)n2)c1 [Example A94, ((2S,3R)-3-Methyl-2-(((6-(trifluoromethyl)pyridin-2-yl)amino)methyl)piperidin-1-yl)(5-methyl-2-(1-methyl-1H-pyrazol-4-yl)phenyl)methanone] | 99
Cc1ccc(-c2ccccn2)c(C(=O)N2CCC[C@@H](C)[C@H]2CNc2ccc(C(F)(F)F)nn2)n1 [Example A165, ((2S,3R)-3-methyl-2-(((6-(trifluoromethyl)pyridazin-3-yl)amino)methyl)piperidin-1-yl)(6′-methyl-[2,3′-bipyridin]-2′-yl)methanone] | 42
COc1ccc(NC[C@@H]2[C@H](C)CCCN2C(=O)c2cc(C)ccc2-n2nccn2)nc1 [Example A126, ((2S,3R)-2-(((5-Methoxypyridin-2-yl)amino)methyl)-3-methylpiperidin-1-yl)(5-methyl-2-(2H-1,2,3-triazol-2-yl)phenyl)methanone] | 56
Cc1ccc(NC[C@@H]2[C@H](C)CCCN2C(=O)c2cc(C)ccc2-n2nccn2)nc1 [Example A48, ((2S,3R)-3-Methyl-2-(((5-methylpyridin-2-yl)amino)methyl)piperidin-1-yl)(5-methyl-2-(2H-1,2,3-triazol-2-yl)phenyl)methanone] | 74
Cc1ccc(-n2nccn2)c(C(=O)N2CCC[C@@H](C)[C@H]2CNc2ncc(Cl)cc2F)c1 [Example A173, ((2S,3R)-2-(((5-Chloro-3-fluoropyridin-2-yl)amino)methyl)-3-methylpiperidin-1-yl)(5-methyl-2-(2H-1,2,3-triazol-2-yl)phenyl)methanone] | 81
Cc1ccc(-n2nccn2)c(C(=O)N2CCC[C@@H](C)[C@H]2CNc2nc(C)cs2)c1 [Example A124, ((2S,3R)-3-Methyl-2-(((4-methylthiazol-2-yl)amino)methyl)piperidin-1-yl)(5-methyl-2-(2H-1,2,3-triazol-2-yl)phenyl)methanone] | 55
Cc1ccc(-n2nccn2)c(C(=O)N2CCC[C@@H](C)[C@H]2CNc2nccc(C(F)(F)F)n2)c1 [Example A163, ((2S,3R)-3-Methyl-2-(((4-(trifluoromethyl)pyrimidin-2-yl)amino)methyl)piperidin-1-yl)(5-methyl-2-(2H-1,2,3-triazol-2-yl)phenyl)methanone] | 90
C[C@@H]1CCCN(C(=O)c2c(F)cccc2-c2ncccn2)[C@@H]1CNc1ncc(C(F)(F)F)cn1 [Example A240, (2-Fluoro-6-(pyrimidin-2-yl)phenyl)((2S,3R)-3-methyl-2-(((5-(trifluoromethyl)pyrimidin-2-yl)amino)methyl)piperidin-1-yl)methanone] | 42
Cc1ccc(-c2ncccn2)c(C(=O)N2CCC[C@@H](C)[C@H]2CNc2ccc(C(F)(F)F)cn2)n1 [Example A183, ((2S,3R)-3-Methyl-2-(((5-(trifluoromethyl)pyridin-2-yl)amino)methyl)piperidin-1-yl)(6-methyl-3-(pyrimidin-2-yl)pyridin-2-yl)methanone] | 49
Cc1ccc(-n2nccn2)c(C(=O)N2CCC(F)(F)C[C@H]2CNc2ccc(Cl)cn2)c1 [Example A210, (S)-(2-(((5-Chloropyridin-2-yl)amino)methyl)-4,4-difluoropiperidin-1-yl)(5-methyl-2-(2H-1,2,3-triazol-2-yl)phenyl)methanone] | 76
Cc1nc(C(=O)N2CCCC(C)C2CNc2ncc(C(F)(F)F)cn2)c(-c2ccc(F)cc2)s1 (racemic) [Example A311, (+/−)-cis-(5-(4-Fluorophenyl)-2-methylthiazol-4-yl)(3-methyl-2-(((5-(trifluoromethyl)pyrimidin-2-yl)amino)methyl)piperidin-1-yl)methanone] | 57
